{"source": "patent US4059700A", "about": "“Dermal toxicity of solid compositions containing a montmorillonite type of clay and an organophosphorus pesticide” (priority 1976, dated 1977)", "key": {"insects and nematodes": {"system": "insects and nematodes", "conditions": "food and fodder crops; cited from earlier work"}, "mammals": {"system": "mammals", "conditions": "ingestion, inhalation or dermal absorption; cited from earlier work"}, "[1]": {"assay": "Dermal toxicity of granular compositions (Example 2, Table I)", "conditions": "rabbit, in vivo, topical or ocular, male albino rabbits, 24 h contact, 14 days observation, read-out: LD50 in mg/kg Body Weight", "excerpt": "Dermal toxicity of granular compositions of the present invention as compared to conventional granular compositions containing the same pesticide, using male albino rabbits as test animal.\n1. Five male albino rabbits weighing approximately 2.2 to 3.5 kilograms are selected for each dosage level. The hair is shaved from the entire trunk.\n2. Saran tubing or \"Vinylite\" film, VU 1900, 12 inches wide, 0.04 millimeters thick and of suitable length to fit around the rabbit.\n3. One felt cloth bandage measuring approximately 9×18 inches.\n4. Four pieces of 11/2 inches adhesive tape approximately 14 inches long.\n1. The granular composition to be tested is placed in the center of the plastic film and is moistened with water.\n2. The rabbits underside is moistened with water and the animals placed belly down on the material. The plastic film is then bought up and around the animal and secured at each end with strips of adhesive tape.\n3. The felt cloth is then placed under the belly and brought up and around the animal and secured to the body with the remaining two strips of adhesive tape.\n1. The animal is placed on the plastic film and is wrapped and the film secured with adhesive tape.\n2. The test material is then injected under the plastic with an appropriate size needle and syringe.\n3. […]\nBy the above procedure the dermal toxicity of the granular compositions prepared in Example 1 is determined. […]"}}, "data": [{"smiles": "CCOP(=S)(OCC)SCSC(C)(C)C", "values": [{"measurement": "control of a broad spectrum of insects and nematodes", "setting": "insects and nematodes", "result": "highly effective"}, {"measurement": "toxicity to mammals when introduced into the mammalian circulatory system", "setting": "mammals", "result": "extremely toxic to mammals"}, {"measurement": "LD50 at 336 h", "setting": "[1]", "result": "1 to 1.4", "unit": "mg/kg"}]}]}
